Reference: the supplement of paper PMC12406974

Experiments:
Assay in all cases: maximum observed lethal fraction; higher = more cell death
U2OS = system: U2OS
U2OS BCL2L12-KO = system: U2OS BCL2L12-KO
U2OS PTBP1-KO = system: U2OS PTBP1-KO
U2OS BAX/BAK1 DKO = system: U2OS BAX/BAK1 DKO
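Also: FLICK assay: SYTOX Green fluorescence of dead cells tracked over time after drugging in 96-well plates, with total cell counts taken from Triton X-100 lysed wells.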

Row | SMILES | maximum observed lethal fraction (U2OS; 0.0316 µM) | maximum observed lethal fraction (U2OS; 0.1 µM) | maximum observed lethal fraction (U2OS; 0.316 µM) | maximum observed lethal fraction (U2OS; 1 µM) | maximum observed lethal fraction (U2OS; 3.16 µM) | maximum observed lethal fraction (U2OS; 10 µM) | maximum observed lethal fraction (U2OS BCL2L12-KO; 0.0316 µM) | maximum observed lethal fraction (U2OS BCL2L12-KO; 0.1 µM) | maximum observed lethal fraction (U2OS BCL2L12-KO; 0.316 µM) | maximum observed lethal fraction (U2OS BCL2L12-KO; 1 µM) | maximum observed lethal fraction (U2OS BCL2L12-KO; 3.16 µM) | maximum observed lethal fraction (U2OS BCL2L12-KO; 10 µM) | maximum observed lethal fraction (U2OS PTBP1-KO; 0.0316 µM) | maximum observed lethal fraction (U2OS PTBP1-KO; 0.1 µM) | maximum observed lethal fraction (U2OS PTBP1-KO; 0.316 µM) | maximum observed lethal fraction (U2OS PTBP1-KO; 1 µM) | maximum observed lethal fraction (U2OS PTBP1-KO; 3.16 µM) | maximum observed lethal fraction (U2OS BAX/BAK1 DKO; 0.1 µM) | maximum observed lethal fraction (U2OS BAX/BAK1 DKO; 0.316 µM) | maximum observed lethal fraction (U2OS BAX/BAK1 DKO; 1 µM) | other results
1 | C/C=C(/C)C(=O)O[C@H]1C(C)=C2[C@H]([C@@H]1OC(=O)CCCCCCC)[C@@](C)(OC(C)=O)C[C@H](OC(=O)CCC)[C@@]1(O)[C@H]2OC(=O)[C@@]1(C)O [Thapsigargin] | 0.405 | 0.476 | 0.473 | 0.602 | 0.585 | 0.763 | 0.631 | 0.675 | 0.688 | 0.71 | 0.721 | 0.779 | 0.228 | 0.265 | 0.324 | 0.296 | 0.48 | 0.192 | 0.171 | 0.266 | maximum observed lethal fraction (U2OS; 31.6 µM): 0.862; maximum observed lethal fraction (U2OS BCL2L12-KO; 31.6 µM): 0.892; maximum observed lethal fraction (U2OS PTBP1-KO; 10 µM): 0.831; maximum observed lethal fraction (U2OS PTBP1-KO; 31.6 µM): 0.892; maximum observed lethal fraction (U2OS BAX/BAK1 DKO; 0.0316 µM): 0.0914; maximum observed lethal fraction (U2OS BAX/BAK1 DKO; 3.16 µM): 0.163; maximum observed lethal fraction (U2OS BAX/BAK1 DKO; 10 µM): 0.811; maximum observed lethal fraction (U2OS BAX/BAK1 DKO; 31.6 µM): 0.884
2 | CC[C@@]1(O)C(=O)OCc2c1cc1n(c2=O)Cc2cc3c(CN(C)C)c(O)ccc3nc2-1 [Topotecan] | 0.0699 | 0.0706 | 0.0756 | 0.0868 | 0.233 | 0.5 | 0.0781 | 0.0819 | 0.0871 | 0.0968 | 0.208 | 0.495 | 0.0741 | 0.0838 | 0.0808 | 0.0858 | 0.106 | 0.0822 | 0.0765 | 0.0845 | maximum observed lethal fraction (U2OS; 31.6 µM): 0.683; maximum observed lethal fraction (U2OS BCL2L12-KO; 31.6 µM): 0.798; maximum observed lethal fraction (U2OS PTBP1-KO; 10 µM): 0.197; maximum observed lethal fraction (U2OS PTBP1-KO; 31.6 µM): 0.329; maximum observed lethal fraction (U2OS BAX/BAK1 DKO; 0.0316 µM): 0.0741; maximum observed lethal fraction (U2OS BAX/BAK1 DKO; 3.16 µM): 0.0931; maximum observed lethal fraction (U2OS BAX/BAK1 DKO; 10 µM): 0.0974; maximum observed lethal fraction (U2OS BAX/BAK1 DKO; 31.6 µM): 0.177
3 | Nc1ccc(-c2ccc3ncc4ccc(=O)n(-c5cccc(C(F)(F)F)c5)c4c3c2)cn1 [Torin2] | 0.0812 | 0.0904 | 0.197 | 0.299 | 0.435 | 0.589 | 0.104 | 0.181 | 0.249 | 0.362 | 0.467 | 0.629 | 0.0906 | 0.107 | 0.196 | 0.276 | 0.363 | 0.0756 | 0.0765 | 0.0833 | maximum observed lethal fraction (U2OS; 31.6 µM): 0.396; maximum observed lethal fraction (U2OS BCL2L12-KO; 31.6 µM): 0.443; maximum observed lethal fraction (U2OS PTBP1-KO; 10 µM): 0.436; maximum observed lethal fraction (U2OS PTBP1-KO; 31.6 µM): 0.421; maximum observed lethal fraction (U2OS BAX/BAK1 DKO; 0.0316 µM): 0.0705; maximum observed lethal fraction (U2OS BAX/BAK1 DKO; 3.16 µM): 0.0776; maximum observed lethal fraction (U2OS BAX/BAK1 DKO; 10 µM): 0.0881; maximum observed lethal fraction (U2OS BAX/BAK1 DKO; 31.6 µM): 0.272
4 | CC(C)[C@]12O[C@H]1[C@@H]1O[C@]13[C@]1(O[C@H]1C[C@H]1C4=C(CC[C@@]13C)C(=O)OC4)[C@@H]2O [Triptolide] | 0.621 | 0.521 | 0.616 | 0.638 |  |  | 0.378 | 0.23 | 0.282 | 0.309 |  |  | 0.24 | 0.206 | 0.223 | 0.286 |  | 0.0915 | 0.0939 | 0.0919 | maximum observed lethal fraction (U2OS; 0.001 µM): 0.0606; maximum observed lethal fraction (U2OS; 0.00316 µM): 0.0621; maximum observed lethal fraction (U2OS; 0.01 µM): 0.161; maximum observed lethal fraction (U2OS BCL2L12-KO; 0.001 µM): 0.0575; maximum observed lethal fraction (U2OS BCL2L12-KO; 0.00316 µM): 0.0652; maximum observed lethal fraction (U2OS BCL2L12-KO; 0.01 µM): 0.073; maximum observed lethal fraction (U2OS PTBP1-KO; 0.001 µM): 0.0668; maximum observed lethal fraction (U2OS PTBP1-KO; 0.00316 µM): 0.0699; maximum observed lethal fraction (U2OS PTBP1-KO; 0.01 µM): 0.085; maximum observed lethal fraction (U2OS BAX/BAK1 DKO; 0.001 µM): 0.0639; maximum observed lethal fraction (U2OS BAX/BAK1 DKO; 0.00316 µM): 0.067; maximum observed lethal fraction (U2OS BAX/BAK1 DKO; 0.01 µM): 0.0751; maximum observed lethal fraction (U2OS BAX/BAK1 DKO; 0.0316 µM): 0.0882
5 | CC(=O)N[C@H]1[C@@H](O[C@@H]2O[C@H](CC(O)[C@H]3O[C@@H](n4ccc(=O)[nH]c4=O)[C@H](O)[C@@H]3O)[C@H](O)[C@H](O)[C@H]2NC(=O)/C=C/CC(C)C)O[C@H](CO)[C@@H](N)[C@@H]1O (stereo partly specified) [Tunicamycin] | 0.0561 | 0.0662 | 0.0886 | 0.347 | 0.692 | 0.82 | 0.0693 | 0.0857 | 0.196 | 0.58 | 0.86 | 0.873 | 0.0731 | 0.0724 | 0.0808 | 0.104 | 0.345 | 0.0609 | 0.0665 | 0.0788 | maximum observed lethal fraction (U2OS; 0.01 µM): 0.0548; maximum observed lethal fraction (U2OS BCL2L12-KO; 0.01 µM): 0.0673; maximum observed lethal fraction (U2OS PTBP1-KO; 0.01 µM): 0.0696; maximum observed lethal fraction (U2OS PTBP1-KO; 10 µM): 0.533; maximum observed lethal fraction (U2OS BAX/BAK1 DKO; 0.01 µM): 0.0556; maximum observed lethal fraction (U2OS BAX/BAK1 DKO; 0.0316 µM): 0.0546; maximum observed lethal fraction (U2OS BAX/BAK1 DKO; 3.16 µM): 0.089; maximum observed lethal fraction (U2OS BAX/BAK1 DKO; 10 µM): 0.0844
6 | O=C(CCCCCCC(=O)Nc1ccccc1)NO [Vorinostat] |  | 0.0571 | 0.0602 | 0.0901 | 0.458 | 0.659 |  | 0.0673 | 0.0704 | 0.185 | 0.586 | 0.804 |  | 0.0673 | 0.0682 | 0.0906 | 0.316 | 0.0548 | 0.0545 | 0.0635 | maximum observed lethal fraction (U2OS; 31.6 µM): 0.778; maximum observed lethal fraction (U2OS; 100 µM): 0.811; maximum observed lethal fraction (U2OS BCL2L12-KO; 31.6 µM): 0.824; maximum observed lethal fraction (U2OS BCL2L12-KO; 100 µM): 0.899; maximum observed lethal fraction (U2OS PTBP1-KO; 10 µM): 0.481; maximum observed lethal fraction (U2OS PTBP1-KO; 31.6 µM): 0.558; maximum observed lethal fraction (U2OS PTBP1-KO; 100 µM): 0.513; maximum observed lethal fraction (U2OS BAX/BAK1 DKO; 3.16 µM): 0.0731; maximum observed lethal fraction (U2OS BAX/BAK1 DKO; 10 µM): 0.0736; maximum observed lethal fraction (U2OS BAX/BAK1 DKO; 31.6 µM): 0.081; maximum observed lethal fraction (U2OS BAX/BAK1 DKO; 100 µM): 0.084
7 | C=CC(=O)Nc1ccc(C(=O)Nc2[nH]nc3c2CN(C(=O)N[C@H](CN(C)C)c2ccccc2)C3(C)C)cc1 [YKL-5-124] | 0.0634 | 0.0827 | 0.0923 | 0.161 | 0.221 | 0.274 | 0.0697 | 0.0761 | 0.0812 | 0.0841 | 0.0923 | 0.115 | 0.0724 | 0.0809 | 0.0854 | 0.0868 | 0.0884 | 0.0739 | 0.0839 | 0.0802 | maximum observed lethal fraction (U2OS; 31.6 µM): 0.461; maximum observed lethal fraction (U2OS BCL2L12-KO; 31.6 µM): 0.49; maximum observed lethal fraction (U2OS PTBP1-KO; 10 µM): 0.1; maximum observed lethal fraction (U2OS PTBP1-KO; 31.6 µM): 0.252; maximum observed lethal fraction (U2OS BAX/BAK1 DKO; 0.0316 µM): 0.0674; maximum observed lethal fraction (U2OS BAX/BAK1 DKO; 3.16 µM): 0.0829; maximum observed lethal fraction (U2OS BAX/BAK1 DKO; 10 µM): 0.0948; maximum observed lethal fraction (U2OS BAX/BAK1 DKO; 31.6 µM): 0.1
